In US20160015786A1, “MOBILIZING AGENTS AND USES THEREFOR” (MATER MEDICAL RESEARCH INSTITUTE LIMITED, priority 2013, published 2016):

Key:
[1] = test system: colony-forming cells (CFCs); assay: Mobilization of colony-forming cells (CFC/CFU) to blood and spleen, colony assays; format: in vivo, C57BL/6 mice
Method: Mobilization of colony-forming cells (CFCs) to the blood and spleen were measured (FIG. 1B).
This was divided into two experiments in which G-CSF was administered for 2 days in one experiment and 4 days in the other (FIG. 2). […] Mobilization of CFCs, phenotypic Lin^−CD41^−Sca1^+Kit^+ HSPCs and Lin^−CD41^− Sca1^+Kit^+CD48^−CD150^+ HSCs were measured in blood and spleens.
Additional HIF-α potentiating agents in the form of PHD inhibitors were tested for their ability to enhance mobilization induced by G-CSF.
(§1) At the end of treatment, blood was harvested by cardiac puncture, mice were sacrificed by cervical dislocation and spleens harvested. Femurs were removed, cleaned and the bone marrow was flushed with 1 mL PBS+10% newborn calf serum (NCS).
The number of phenotypic hematopoietic stem and progenitor cells remaining in the bone marrow following treatment was measured by flow cytometry using antibodies specific for lineage markers (CD3, CD5, CD45R/B220, F4/80, Gr1, CD41, Ter119), Sca-1, Kit, CD48 and CD150. Similarly, the number of phenotypic hematopoietic stem cells mobilized into the blood and spleen were measured. Colony assays were also performed on blood and spleen to determine the number of colony forming cells per mL of blood and per spleen. […] Levels of significance for differences were calculated using the Student's t-test.
All procedures were approved by the animal experimentation ethics committee of the University of Queensland. […] Plerixafor (AMD3100 octohydrochloride, Tocris Bioscience, Bristol, UK) was injected intraperitoneally as a single 16 mg/kg dose corresponding to 10 mg/kg of AMD3100 base. Tissues were harvested 1 h after Plerixafor administration. […] Control mice were injected with an equivalent volume of saline. At specified time-points, mice were anesthetized with isoflurane before cardiac puncture to harvest blood. Mice were then euthanized by cervical dislocation and BM and bones harvested.
Optimal concentrations of mouse IL-3, IL-6 and soluble kit ligand were added as conditioned media from stably transfected BHK cell lines. Colonies were counted after 7 days culture at 37° C. in a humidified incubator containing 5% CO2.

CD34+ cells = conditions: cited from earlier work
[2] = test system: colony-forming cells (CFCs); conditions: Plerixafor; reference (7); cited from earlier work
[3] = test system: hematopoietic stem and progenitor cells; assay: Phenotypic HSCs, HSPCs and myeloid progenitors in blood, spleen and bone marrow by flow cytometry; format: in vivo, C57BL/6 mice
Method: (§2) Additional HIF-α potentiating agents in the form of PHD inhibitors were tested for their ability to enhance mobilization induced by G-CSF. Compound A, Compound B or Compound C, were tested in male, 7 weeks-old C57BL/6 mice. Mice were injected twice daily sub-cutaneously with rhuG-CSF at a dose of 125 μg/kg per injection for four days. Mice were gavaged with 20 mg/kg Compound A, Compound B, Compound C or vehicle control once daily for three days beginning on day 1 of the experiment.
as §1
The number of phenotypic hematopoietic stem and progenitor cells remaining in the bone marrow following treatment was measured by flow cytometry using antibodies specific for lineage markers (CD3, CD5, CD45R/B220, F4/80, Gr1, CD41, Ter119), Sca-1, Kit, CD48 and CD150. Similarly, the number of phenotypic hematopoietic stem cells mobilized into the blood and spleen were measured. Colony assays were also performed on blood and spleen to determine the number of colony forming cells per mL of blood and per spleen. All results are presented as mean f standard deviation with n=6 per groups. Levels of significance for differences were calculated using the Student's t-test.
All procedures were approved by the animal experimentation ethics committee of the University of Queensland. All experiments were performed on nine to twelve-week old C57BL/6 male mice or genetically modified mice back-crossed at least 10 times into C57BL/6. Recombinant human G-CSF (Amgen, Thousand Oaks, Calif.) was injected twice daily subcutaneously at 125 μg/kg per injection for up to 4 consecutive days. Plerixafor (AMD3100 octohydrochloride, Tocris Bioscience, Bristol, UK) was injected intraperitoneally as a single 16 mg/kg dose corresponding to 10 mg/kg of AMD3100 base. Tissues were harvested 1 h after Plerixafor administration. […] Compounds H and J were administered at 60 mg/kg and Compound K was administered at 100 mg/kg. Control mice were injected with an equivalent volume of saline. At specified time-points, mice were anesthetized with isoflurane before cardiac puncture to harvest blood. Mice were then euthanized by cervical dislocation and BM and bones harvested.
Following flushing with PBS plus 2% NCS, enriched central BM cells were pelleted at 370×g for 5 minutes at 4° C. and resuspended in CD16/CD32 hybridoma 2.4G2 supernatant to block IgGFc receptors. HSCs were stained with the biotinylated lineage antibody cocktail (CD3, CD5, B220, CD11b, Gr-1, Ter119) and biotinylated CD41 together with streptavidin (SAV)-Pacific Blue, anti-Sca-1-PECY7, anti-KIT-APC, CD48-FITC and CD150-PE as previously described (17). Data were acquired on a CyAn (Dako Cytomation) flow cytometer and analyzed following compensation with single color controls using FlowJo software (Tree Star, Ashland, Oreg.).

white blood cells = assay: White blood cell number per mL of blood after mobilization treatment; format: in vivo, C57BL/6 mice; conditions: Example 6: 20 mg/kg + G-CSF vs vehicle + G-CSF; FIG. 11
Method: as §2, §1

[4] = Spleen weight after mobilization treatment; format: in vivo, C57BL/6 mice; conditions: Example 6: 20 mg/kg + G-CSF vs vehicle + G-CSF; FIG. 11
Method: as §2, with “Mice were gavaged with 20 mg/kg Compound A, Compound B, Compound C or vehicle control once daily for three days beginning on day 1 of the experiment.” left out
as §1

[5] = Example 6: 20 mg/kg + G-CSF vs vehicle + G-CSF, FIG. 10
[6] = Example 6: 20 mg/kg + G-CSF vs vehicle + G-CSF, FIGS. 8A-B
[7] = Example 6: blood and spleen, 20 mg/kg + G-CSF vs vehicle + G-CSF, FIGS. 9A-B

c1cc(CN2CCCNCCNCCCNCC2)ccc1CN1CCCNCCNCCCNCC1 [Plerixafor, 1,1′-[1,4-phenylenebis(methylene)]-bis-1,4,8,11-tetra-azacyclotetradecane]
mobilization of HSPC to the spleen ([1]; 1 hr following Plerixafor treatment with or without Compound X, FIG. 1D): no significant mobilization
enhancement of CFC mobilization in response to G-CSF ([1]; Plerixafor 16 mg/kg 1 hour prior harvest + 2 days G-CSF, p<0.005): 10 fold
patients who failed with G-CSF alone who still fail to mobilize adequately (CD34+ cells; G-CSF and Plerixafor, references (8-9)): 40%
patients who previously failed to mobilize with G-CSF alone who reach the minimal threshold (CD34+ cells; Plerixafor daily 1 hr prior to aphaeresis from day 4 of G-CSF, references (8-9)): approximately 60%
time of peak mobilization post-injection [2]: 1 h

N#Cc1nc(C(=O)NCC(=O)O)c(O)c2c(Oc3ccccc3)cccc12 [Compound B, [(1-Cyano-4-hydroxy-5-phenoxy-isoquinoline-3-carbonyl)-amino]-acetic acid]
number of CFUs mobilized to the spleen [1, 5]: statistically significant
number of colony forming units mobilized to the blood [1, 5]: no significant change
total number of CFUs mobilized, relative to Compound A or Compound C with G-CSF ([1]; Example 6: 20 mg/kg + G-CSF, FIG. 10): comparable
mobilization of myeloid progenitors (LKS−) to the blood ([3]; Example 6: 20 mg/kg + G-CSF vs vehicle + G-CSF): did not significantly alter
increase in mobilization of myeloid progenitors (LKS−) to the spleen [3, 6]: approximately 3 fold
increase in number of HSPCs (LSK48+ and LSK) mobilized to the spleen [3, 6]: approximately 2 fold
increase in number of phenotypic HSCs (LSK48−150+) mobilized to the spleen [3, 6]: approximately 2 fold
total number of phenotypic HSPCs in the bone marrow ([3]; Example 6: 20 mg/kg once daily 3 days + rhuG-CSF 125 μg/kg twice daily 4 days vs vehicle + G-CSF, FIGS. 6A-B): did not significantly alter
increase in total number of HSPCs (LSK48+ and LSK) mobilized from the bone marrow [3, 7]: approximately 2 fold
increase in total number of myeloid progenitors (LKS−) mobilized from the bone marrow [3, 7]: approximately 6 fold
increase in total number of phenotypic HSCs (LSK48−150+) mobilized from the bone marrow [3, 7]: approximately 2 fold
number of white blood cells per mL of blood (white blood cells): significant increase
increase in spleen weight [4]: approximately 2 fold

B1: G-CSF: cytokine granulocyte colony-stimulating factor, the main mobilizing agent used in the clinic; recombinant human G-CSF (Amgen) (protein, UniProt P09919 31-207, looked up)
Granulocyte …: TPLGPASSLPQSFLLKCLEQVRKIQGDGAALQEKLVSECATYKLCHPEELVLLGHSLGIPWAPLSSCPSQALQLAGCLSQLHSGLFLYQGLLQALEGISPELGPTLDTLQLDVADFATTIWQQMEELGMAPALQPTQGAMPAFASAFQRRAGGVLVASHLQSFLEVSYRVLRHLAQP
modifications: filgrastim
chemotherapy-treated patients who fail to reach the minimal threshold of 2×10^6 CD34+ cells/kg (CD34+ cells; autologous setting, in response to G-CSF, reference (1)): 30-60%
